From patent US20190327974A1, “SYNERGISTS FOR IMPROVED PESTICIDES” (priority 2017, published 2019) come the findings set out here.

In one test the target is T1, DPP4 (Homo sapiens, UniProt P27487).
T1 construct: purchased ENZO
Nature of the test: Protease selectivity panel. Type of test: biochemical. The conditions noted are these: 100 μM compound, n = 2. Here is the method: (§1) Test compounds were dissolved in 100% DMSO to make 10 mM stock. Final compound concentration in assay is […]. Compounds were tested in duplicate wells at single concentration and the final concentration of DMSO in all assays was kept at 1%. Five reference compounds, AEBSF, Carfilzomib, Granzyme B Inhibitor II, Dec-RVKR-CMK, and Teneligliptin hydrobromide, were tested in an identical manner with 8 concentration points at 5× dilutions.

The next test concerns the target T2, HTRA2 (Homo sapiens, UniProt O43464).
T2 construct: purchased R&D Systems
T2 sequence (O43464 134-458): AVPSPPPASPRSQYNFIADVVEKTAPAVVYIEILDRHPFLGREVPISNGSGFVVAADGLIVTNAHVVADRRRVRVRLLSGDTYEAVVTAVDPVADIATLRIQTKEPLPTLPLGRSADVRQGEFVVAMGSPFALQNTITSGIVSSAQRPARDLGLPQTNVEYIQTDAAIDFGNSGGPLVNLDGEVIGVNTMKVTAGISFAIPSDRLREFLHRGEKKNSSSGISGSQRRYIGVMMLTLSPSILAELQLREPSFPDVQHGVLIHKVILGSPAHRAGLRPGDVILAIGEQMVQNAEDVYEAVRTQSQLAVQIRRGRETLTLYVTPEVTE
Nature of the test: Protease selectivity panel. It counts as biochemical. To be noted: 100 μM compound, n = 2. On the procedure: as §1

For a further test, the target named is T3, Matriptase (Homo sapiens, UniProt Q9Y5Y6).
T3 construct: purchased R&D Systems
T3 sequence (Q9Y5Y6 1-855): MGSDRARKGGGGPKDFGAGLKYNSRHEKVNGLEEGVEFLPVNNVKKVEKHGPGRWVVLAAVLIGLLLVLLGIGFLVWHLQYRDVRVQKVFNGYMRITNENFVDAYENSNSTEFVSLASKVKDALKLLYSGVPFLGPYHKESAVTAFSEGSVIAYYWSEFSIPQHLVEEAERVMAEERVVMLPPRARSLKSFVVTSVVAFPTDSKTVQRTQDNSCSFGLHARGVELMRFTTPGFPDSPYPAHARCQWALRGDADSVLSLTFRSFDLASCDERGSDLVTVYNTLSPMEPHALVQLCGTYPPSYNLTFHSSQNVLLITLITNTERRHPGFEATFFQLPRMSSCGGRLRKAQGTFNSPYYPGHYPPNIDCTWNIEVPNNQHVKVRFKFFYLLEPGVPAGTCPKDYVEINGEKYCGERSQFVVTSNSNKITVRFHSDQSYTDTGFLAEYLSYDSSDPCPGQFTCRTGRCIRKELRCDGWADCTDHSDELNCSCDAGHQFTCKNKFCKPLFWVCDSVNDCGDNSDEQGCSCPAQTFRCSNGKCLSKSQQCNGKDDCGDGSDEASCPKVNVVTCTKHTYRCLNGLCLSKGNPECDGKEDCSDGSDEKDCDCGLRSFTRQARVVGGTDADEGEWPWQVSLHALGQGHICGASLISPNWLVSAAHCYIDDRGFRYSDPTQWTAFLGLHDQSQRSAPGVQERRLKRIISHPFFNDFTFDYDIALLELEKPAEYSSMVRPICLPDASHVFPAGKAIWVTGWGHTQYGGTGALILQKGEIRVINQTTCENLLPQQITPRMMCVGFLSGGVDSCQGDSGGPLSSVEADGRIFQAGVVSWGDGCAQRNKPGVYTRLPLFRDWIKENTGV
Nature of the test: Protease selectivity panel. It counts as biochemical. To be noted: 100 μM compound, n = 2. On the procedure: as §1

Test [1] deals with Ostrinia nubilalis (European corn borer). Kind of test: Efficacy of chlorpyrifos-ethyl with boronic acids on European corn borer on corn leaves. It counts as in vivo. Here is the method:
Treatments were performed by spraying a volume of mixture corresponding to 200 l/ha. 4 boxes/condition.
Drying 1 h at 20° C.; Deposit of three leaf fragments per box on water agar (4 box/condition); Infection of each leaf fragment with 4 Ostrinia nubilalis (12 larvae/box); Incubation 18° C./28° C. […] The percentage of mortality was calculated for each assessment times. Statistical analysis of the data was performed with XLSTAT® software (ANOVAs followed by Newman-Keuls tests with a threshold of 5%, see Table below).

In test [2] the test system is Lucilia cuprina larvae, laboratory susceptible strain (LS). Nature of the test: Blowfly larvae pupation bioassay, laboratory strain, diazinon. It counts as in vivo. Here is the method:
Inhibitor efficacy was determined by treating larvae with diazinon over a range of concentrations, in the presence or absence of the compounds at constant concentrations, and comparing pupation rates.
Two strains of L. cuprina were used: 1) a laboratory reference drug-susceptible strain, LS, derived from collections in the Australian Capital Territory over 40 years ago, with no history of exposure to insecticides; and 2) a field-collected strain, Tara, resistant to diazinon and diflubenzuron (Levot, G. W. & Sales, N. New high level resistance to diflubenzuron detected in the Australian sheep blowfly, Lucilia cuprina (Wiedemann) (Diptera: Calliphoridae). Gen. Appl. Entomol. 31, 43-46 (2002)). The LcαE7 gene was sequenced in each of the strains. Briefly, genomic DNA was prepared from 20 adult female flies from each strain using the DNeasy Blood and Tissue kit (Qiagen). PCR was performed with primers specific to the LcαE7 gene, and the product was cloned into a pGEM-T EASY vector (Promega). Eight clones of the susceptible strain and 10 clones of the resistant strain were sequenced using M13 forward and reverse primers.
Each experiment utilized 50 larvae at each diazinon/malathion concentration. Experiments were replicated three times for diazinon, and twice for malathion. The insecticidal effects were defined by measuring the pupation rate. […]

Broadly, the inhibition is the drop in the measured response relative to a control, in per cent.

T1 sequence (P27487 whole entry): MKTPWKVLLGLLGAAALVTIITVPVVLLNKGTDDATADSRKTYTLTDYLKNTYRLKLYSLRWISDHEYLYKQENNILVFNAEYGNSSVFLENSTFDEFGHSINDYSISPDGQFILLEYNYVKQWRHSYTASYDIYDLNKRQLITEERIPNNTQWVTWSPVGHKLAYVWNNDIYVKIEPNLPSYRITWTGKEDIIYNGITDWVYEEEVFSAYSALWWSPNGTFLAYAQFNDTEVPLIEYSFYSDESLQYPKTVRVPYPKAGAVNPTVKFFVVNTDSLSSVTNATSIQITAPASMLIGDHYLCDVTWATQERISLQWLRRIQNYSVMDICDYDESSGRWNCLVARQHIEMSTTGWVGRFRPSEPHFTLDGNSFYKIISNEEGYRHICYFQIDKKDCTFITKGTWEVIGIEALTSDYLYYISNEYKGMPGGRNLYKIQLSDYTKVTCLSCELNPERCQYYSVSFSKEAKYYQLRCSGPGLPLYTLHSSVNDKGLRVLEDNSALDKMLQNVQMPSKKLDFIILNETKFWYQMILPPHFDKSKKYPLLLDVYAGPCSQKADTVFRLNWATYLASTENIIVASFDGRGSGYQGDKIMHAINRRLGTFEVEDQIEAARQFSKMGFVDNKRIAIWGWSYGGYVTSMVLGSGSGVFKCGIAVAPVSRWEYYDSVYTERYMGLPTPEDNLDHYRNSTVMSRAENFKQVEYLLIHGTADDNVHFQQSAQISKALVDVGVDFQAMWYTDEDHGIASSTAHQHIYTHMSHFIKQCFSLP

On to `OB(O)c1cc(Br)cc(N2CCCC2)c1` [Compound 3], for which the inhibition at 100 µM against DPP4 is 6%; at HTRA2, 23%; against Matriptase, -1%.
For `OB(O)c1cc(Br)cc(OCc2ccccc2)c1` [Compound 3.9], in that order: 2%, 28% and 5%.
Consider `OB(O)c1cc(Br)cc(N2CCOCC2)c1` [Compound 3.1], for which the “Larvae number, mean” value in test [1] (boronic acid alone 0.2 mg/ml, 1 DAT, 12 larvae/box) is listed as 12; in test [1] (boronic acid alone 0.2 mg/ml, 3 DAT, 12 larvae/box), 12; in test [1] (boronic acid alone 0.2 mg/ml, 6 DAT, 12 larvae/box) it was 8.3. Further, in test [2], the “reduction of diazinon EC50 compared to diazinon only control” value is recorded as 5.7 fold.
Take `CCOP(=S)(OCC)Oc1nc(Cl)c(Cl)cc1Cl` [CPE, Chlorpyrifos-ethyl]: the Percentage of efficacy in test [1] (CPE 2.5, 1 DAT, boronic acid where present 0.2 mg/ml) came to 0%; in test [1] (CPE 2.5, 3 DAT, boronic acid where present 0.2 mg/ml), 0%; in test [1] (CPE 2.5, 6 DAT, boronic acid where present 0.2 mg/ml), 26%; in test [1] (CPE 6.24, 1 DAT, boronic acid where present 0.2 mg/ml), 11%; in test [1] (CPE 6.24, 3 DAT, boronic acid where present 0.2 mg/ml) it was 16%; in test [1] (CPE 6.24, 6 DAT, boronic acid where present 0.2 mg/ml), 63%. For the same compound, the Percentage of efficacy is 40% in test [1] (CPE 15.6, 1 DAT, boronic acid where present 0.2 mg/ml); 39% in test [1] (CPE 15.6, 3 DAT, boronic acid where present 0.2 mg/ml); 67% in test [1] (CPE 15.6, 6 DAT, boronic acid where present 0.2 mg/ml); 72% in test [1] (CPE 39, 1 DAT, boronic acid where present 0.2 mg/ml); 83% in test [1] (CPE 39, 3 DAT, boronic acid where present 0.2 mg/ml); 88% in test [1] (CPE 39, 6 DAT, boronic acid where present 0.2 mg/ml). Further, the “Larvae number, mean” value in test [1] (CPE 2.5 g a.i./ha, 1 DAT, boronic acid where present 0.2 mg/ml) is 12; in test [1] (CPE 2.5 g a.i./ha, 3 DAT, boronic acid where present 0.2 mg/ml) it was 12; in test [1] (CPE 2.5 g a.i./ha, 6 DAT, boronic acid where present 0.2 mg/ml) it was 8; in test [1] (CPE 6.24 g a.i./ha, 1 DAT, boronic acid where present 0.2 mg/ml), 10.7; in test [1] (CPE 6.24 g a.i./ha, 3 DAT, boronic acid where present 0.2 mg/ml), 9.7; in test [1] (CPE 6.24 g a.i./ha, 6 DAT, boronic acid where present 0.2 mg/ml) it was 4. Further, the “Larvae number, mean” value in test [1] (CPE 15.6 g a.i./ha, 1 DAT, boronic acid where present 0.2 mg/ml) was found to be 7.3; in test [1] (CPE 15.6 g a.i./ha, 3 DAT, boronic acid where present 0.2 mg/ml) it was 7; in test [1] (CPE 15.6 g a.i./ha, 6 DAT, boronic acid where present 0.2 mg/ml), 3.5; in test [1] (CPE 39 g a.i./ha, 1 DAT, boronic acid where present 0.2 mg/ml) it was 3.3; in test [1] (CPE 39 g a.i./ha, 3 DAT, boronic acid where present 0.2 mg/ml), 2; in test [1] (CPE 39 g a.i./ha, 6 DAT, boronic acid where present 0.2 mg/ml), 1.3.
Consider `OB(O)c1cc(Br)cc(Oc2ccccc2)c1` [Compound 3.10, 3-Bromo-5-phenoxyfenylboronic acid], for which the values for the inhibition at 100 µM against DPP4, on HTRA2 and on Matriptase were -3%, 2% and 4%, respectively.
